The results in this text go back to US8765728B2, “[1,5]-diazocin derivatives” (MelliTech, priority 2009, dated 2014).

In the assay the test system is Min6 cell. The assay can be described thus: Insulin secretion response of beta cell line to formula I compounds (insulin ELISA). It is filed as cell-based. The note with it: rank according to % increase versus control at most effective dose. In a few lines:
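After compound or vehicle exposure, Min6 cells were held 2 h in glucose-free medium and preincubated 30 min at 37° C in glucose-free KRBH (pH 7.4, 0.1% BSA). They were then incubated 30 min at 37° C in KRBH with varying glucose. Secreted insulin and acid-ethanol-extracted intracellular insulin were measured by ELISA.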
A general note: In an ELISA, binding on a coated surface is turned into a signal by an enzyme label.
Turning to `O=C1CCN(CC(O)c2cccc(F)c2)c2ccc(Cl)cc2CN1C1CC1` (centres unmarked) [Compound 86, 8-chloro-5-cyclopropyl-1-(2-(3-fluorophenyl)-2-hydroxyethyl)-2,3,5,6-tetrahydrobenzo[b][1,5]diazocin-4(1H)-one], the “Insulin secretion (Min6 cell) Range 1 to 5” value (“Insulin secretion” below) is listed as 2 (2: 110-120% of control).

For the compound `O=C1CCN(C[C@@H](O)COCc2ccccc2)c2ccc3c(c2CN1C1CC1)OCCO3` [Compound 88, 7-[(2R)-3-(benzyloxy)-2-hydroxypropyl]-11-cyclopropyl-2,3,8,9,11,12-hexahydro[1,4]dioxino[2,3-h][1,5]benzodiazocin-10(7H)-one], the “Insulin secretion” value was 1 (1: 90-110% of control).

Take `COc1ccc2c(c1)CN(C1CC1)C(=O)CCN2C[C@@H](O)COc1ccc(Cl)cc1` [Compound 89, (R)-1-(3-(4-chlorophenoxy)-2-hydroxypropyl)-5-cyclopropyl-8-methoxy-2,3,5,6-tetrahydrobenzo[b][1,5]diazocin-4(1H)-one]: the “Insulin secretion” value is 1 (1: 90-110% of control).

Take `COc1ccc2c(c1)CN(C1CC1)C(=O)CCN2C[C@H](O)COc1ccc(Cl)cc1` [Compound 90, (S)-1-(3-(4-chlorophenoxy)-2-hydroxypropyl)-5-cyclopropyl-8-methoxy-2,3,5,6-tetrahydrobenzo[b][1,5]diazocin-4(1H)-one]: the “Insulin secretion” value was 1 (1: 90-110% of control).

As for `O=C(c1ccno1)N1CCC(=O)N(C2CC2)Cc2c1ccc1c2OCCO1` [Compound 91, 11-cyclopropyl-7-(isoxazol-5-ylcarbonyl)-2,3,8,9,11,12-hexahydro[1,4]dioxino[2,3-h][1,5]benzodiazocin-10(7H)-one], the “Insulin secretion” value was 1 (1: 90-110% of control).

Consider `O=C(c1ncoc1-c1ccccc1)N1CCC(=O)N(C2CC2)Cc2c1ccc1c2OCCO1` [Compound 92, 11-cyclopropyl-7-[(5-phenyl-1,3-oxazol-4-yl)carbonyl]-2,3,8,9,11,12-hexahydro[1,4]dioxino[2,3-h][1,5]benzodiazocin-10(7H)-one], for which the “Insulin secretion” value is reported as 1 (1: 90-110% of control).

For `O=C(CN1CCC(=O)N(C2CC2)Cc2c1ccc1c2OCCO1)c1cccc(F)c1` [Compound 93, 11-cyclopropyl-7-[2-(3-fluorophenyl)-2-oxoethyl]-2,3,8,9,11,12-hexahydro[1,4]dioxino[2,3-h][1,5]benzodiazocin-10(7H)-one], the “Insulin secretion” value is 1 (1: 90-110% of control).

Consider `O=C(CN1CCC(=O)N(C2CC2)Cc2c1ccc1c2OCCO1)c1ccc(Cl)cc1` [Compound 94, 7-[2-(4-chlorophenyl)-2-oxoethyl]-11-cyclopropyl-2,3,8,9,11,12-hexahydro[1,4]dioxino[2,3-h][1,5]benzodiazocin-10(7H)-one], for which the “Insulin secretion” value is reported as 1 (1: 90-110% of control).

Regarding `O=C1CCN(CC(O)COc2ccccc2)c2ccc3c(c2CN1C1CC1)OCCO3` (centres unmarked) [Compound 95, 11-cyclopropyl-7-(2-hydroxy-3-phenoxypropyl)-2,3,8,9,11,12-hexahydro[1,4]dioxino[2,3-h][1,5]benzodiazocin-10(7H)-one], the “Insulin secretion” value was 1 (1: 90-110% of control).

Turning to `O=C1CCN(CC(O)c2cccc(F)c2)c2ccc3c(c2CN1C1CC1)OCCO3` (centres unmarked) [Compound 96, 11-cyclopropyl-7-[2-(3-fluorophenyl)-2-hydroxyethyl]-2,3,8,9,11,12-hexahydro[1,4]dioxino[2,3-h][1,5]benzodiazocin-10(7H)-one], the “Insulin secretion” value was 3 (3: 120-140% of control).

As to `O=C1CCN(CC(O)c2ccc(Cl)cc2)c2ccc3c(c2CN1C1CC1)OCCO3` (centres unmarked) [Compound 97, 7-[2-(4-chlorophenyl)-2-hydroxyethyl]-11-cyclopropyl-2,3,8,9,11,12-hexahydro[1,4]dioxino[2,3-h][1,5]benzodiazocin-10(7H)-one], the “Insulin secretion” value is given as 2 (2: 110-120% of control).
